# Reference: ChEMBL document CHEMBL5096221, “Discovery of a Highly Potent and Orally Bioavailable STAT3 Dual Phosphorylation Inhibitor for Pancreatic Cancer Treatment” (J Med Chem, 2022)
# Activity calls are given as the source filed them. The calls are words filed in the database; no cut-off is given here.
# Legend:
# [1] = biological target: T1, Signal transducer and activator of transcription 3 (Homo sapiens, UniProt P40763); test: Inhibition of STAT3 in human Capan-2 cells assessed as inhibition of STAT3 phosphorylation at Tyr 705 at 30 nM incubated for 4 to 24 hrs by western blot analysis; format: cell-based; conditions: time 4-24 hrs, TDE = time-dependent effect
# CFPAC-1 [2] = test: Inhibition of mitochondrial respiration in human CFPAC-1 cells assessed as reduction in maximal respiration rate at 1 to 30 nM incubated for 1 hr by seahorse XF96 flux analyzer; format: functional, cell-based; conditions: dose 1-30 nM, DDE = dose-dependent effect
# [3] = Microsomal stability in rat liver microsomes assessed as half life incubated upto 40 mins in presence of NADPH by LC-MS/MS analysis; format: ADME, Microsome
# [4] = biological target: T1, Signal transducer and activator of transcription 3; test: Inhibition of STAT3 in human Capan-2 cells assessed as inhibition of STAT3 phosphorylation at Tyr 705 at 10 nM incubated for 22 to 24 hrs by western blot analysis; format: cell-based; conditions: time 22-24 hrs
# [5] = biological target: T1, Signal transducer and activator of transcription 3; test: Inhibition of STAT3 in human BXPC-3 cells assessed as inhibition of STAT3 phosphorylation at Ser 727 at 30 nM incubated for 4 to 24 hrs by western blot analysis; format: cell-based; conditions: time 4-24 hrs, TDE = time-dependent effect
# [6] = biological target: T1, Signal transducer and activator of transcription 3; test: Inhibition of STAT3 in human Capan-2 cells assessed as reduction of c-Myc expression at 30 nM incubated for 4 to 24 hrs by western blot analysis; format: cell-based; conditions: time 4-24 hrs, TDE = time-dependent effect
# [7] = AUC (0-infinity) in BALB/c mouse at 10 mg/kg,po measured upto 24 hrs by LC-MS/MS analysis; format: ADME, organism-based; parameters: time < 24 hrs, dose 10 mg/kg, route po; conditions: in vivo
# [8] = biological target: T1, Signal transducer and activator of transcription 3; test: Inhibition of STAT3 in human BXPC-3 cells assessed as inhibition of IL-6 stimulated cytoplasmic STAT3 phosphorylation at Tyr 705 at 1 to 30 nM by western blot assay; format: cell-based; conditions: dose 1-30 nM
# [9] = MRT (0 to last) in BALB/c mouse at 10 mg/kg,po measured upto 24 hrs by LC-MS/MS analysis; format: ADME, organism-based; conditions: in vivo
# [10] = Toxicity in BALB/c mouse xenografted with human BXPC-3 cells assessed as effect on lung at 30 mg/kg,po administrated once daily for 8 weeks by H and E staining based microscopic analysis; format: organism-based; conditions: in vivo, 1344 h
# [11] = biological target: Tyrosine-protein kinase JAK1 (Homo sapiens, UniProt P23458); test: Inhibition of JAK1 (unknown origin)
# [12] = Toxicity in BALB/c mouse xenografted with human BXPC-3 cells assessed as effect on lung at 10 mg/kg,po administrated once daily for 8 weeks by H and E staining based microscopic analysis; format: organism-based; conditions: in vivo, 1344 h
# CFPAC-1 [13] = test: Anti-proliferative activity against human CFPAC-1 cells assessed as cell growth inhibition incubated for 72 hrs by MTS assay; format: functional, cell-based; conditions: CFPAC-1, 72 h
# [14] = biological target: T1, Signal transducer and activator of transcription 3; test: Inhibition of STAT3 in human BXPC-3 cells assessed as inhibition of STAT3 phosphorylation at Ser 727 at 10 nM incubated for 22 to 24 hrs by western blot analysis; format: cell-based; conditions: time 22-24 hrs
# [15] = AUC (0-24hrs) in BALB/c mouse at 1 mg/kg,iv measured upto 24 hrs by LC-MS/MS analysis; format: ADME, organism-based; parameters: time < 24 hrs, dose 1 mg/kg, route iv; conditions: in vivo
# [16] = biological target: T1, Signal transducer and activator of transcription 3; test: Thermal stabilization of STAT3 in human BXPC-3 cells at 10 microM at 42.9 degreeC incubated for 1 hrs by cellular thermal shift assay; format: cell-based
# PC-3 [17] = test: Anti-proliferative activity against human PC-3 cells assessed as cell growth inhibition incubated for 72 hrs by MTS assay; format: functional, cell-based; conditions: PC-3, 72 h
# [18] = biological target: T1, Signal transducer and activator of transcription 3; test: Inhibition of STAT3 in human Capan-2 cells assessed as reduction of c-Myc expression at 1 to 30 nM incubated for 22 to 24 hrs by western blot analysis; format: cell-based; conditions: dose 1-30 nM, time 22-24 hrs, DDE = dose-dependent effect
# [19] = biological target: T1, Signal transducer and activator of transcription 3; test: Inhibition of STAT3 in human BXPC-3 cells assessed as reduction of Cyclin D1 expression at 30 nM incubated for 4 to 24 hrs by western blot analysis; format: cell-based; conditions: time 4-24 hrs, TDE = time-dependent effect
# [20] = Toxicity in BALB/c mouse xenografted with human BXPC-3 cells assessed as body weight change at 10 mg/kg,po administrated once daily for 8 weeks; format: organism-based; conditions: in vivo, 1344 h
# [21] = biological target: T1, Signal transducer and activator of transcription 3; test: Thermal stabilization of STAT3 in human BXPC-3 cells at 10 microM at 50.6 degreeC incubated for 1 hrs by cellular thermal shift assay; format: cell-based
# [22] = biological target: T1, Signal transducer and activator of transcription 3; test: Inhibition of STAT3 in human Capan-2 cells assessed as reduction of Cyclin D1 expression at 1 to 30 nM incubated for 22 to 24 hrs by western blot analysis; format: cell-based; conditions: dose 1-30 nM, time 22-24 hrs, DDE = dose-dependent effect
# [23] = biological target: Proto-oncogene tyrosine-protein kinase Src (Homo sapiens, UniProt P12931); test: Inhibition of SRC (unknown origin)
# BXPC-3 [24] = test: Inhibition of mitochondrial respiration in human BXPC-3 cells assessed as reduction in maximal respiration rate at 1 to 30 nM incubated for 1 hr by seahorse XF96 flux analyzer; format: functional, cell-based; conditions: dose 1-30 nM, DDE = dose-dependent effect
# [25] = Toxicity in BALB/c mouse xenografted with human BXPC-3 cells assessed as effect on spleen at 30 mg/kg,po administrated once daily for 8 weeks by H and E staining based microscopic analysis; format: organism-based; conditions: in vivo, 1344 h
# [26] = AUC (0-infinity) in BALB/c mouse at 1 mg/kg,iv measured upto 24 hrs by LC-MS/MS analysis; format: ADME, organism-based; parameters: dose 1 mg/kg, time < 24 hrs, route iv; conditions: in vivo
# CFPAC-1 [27] = test: Inhibition of mitochondrial respiration in human CFPAC-1 cells assessed as reduction in oxygen consumption rate at 1 to 30 nM incubated for 1 hr by seahorse XF96 flux analyzer; format: functional, cell-based; conditions: dose 1-30 nM, DDE = dose-dependent effect
# [28] = Microsomal stability in human liver microsomes assessed as intrinsic clearance incubated upto 40 mins in presence of NADPH by LC-MS/MS analysis; format: ADME, Microsome; conditions: read-out: CLH
# [29] = Toxicity in BALB/c mouse xenografted with human BXPC-3 cells assessed as effect on spleen at 10 mg/kg,po administrated once daily for 8 weeks by H and E staining based microscopic analysis; format: organism-based; conditions: in vivo, 1344 h
# [30] = biological target: T1, Signal transducer and activator of transcription 3; test: Inhibition of STAT3 in human BXPC-3 cells assessed as reduction of c-Myc expression at 30 nM incubated for 4 to 24 hrs by western blot analysis; format: cell-based; conditions: time 4-24 hrs, TDE = time-dependent effect
# [31] = Toxicity in BALB/c mouse xenografted with human BXPC-3 cells assessed as effect on kidney at 30 mg/kg,po administrated once daily for 8 weeks by H and E staining based microscopic analysis; format: organism-based; conditions: in vivo, 1344 h
# [32] = biological target: T1, Signal transducer and activator of transcription 3; test: Inhibition of STAT3 in human Capan-2 cells assessed as inhibition of STAT3 phosphorylation at Ser 727 at 10 nM incubated for 22 to 24 hrs by western blot analysis; format: cell-based; conditions: time 22-24 hrs
# Mus musculus = test: In vivo inhibition of STAT3 in BALB/c mouse xenografted with human BXPC-3 cells assessed as inhibition of STAT3 phosphorylation at Tyr 705 at 30 mg/kg,po administrated once daily for 8 weeks by immunohistochemical analysis; format: functional, organism-based
# PC-3 [33] = test: Inhibition of colony formation in human PC-3 cells at 1000 nM incubated for 5 to 7 days by crystal violet staining assay; format: functional, cell-based; conditions: time 5-7 day
# BXPC-3 [34] = test: Antitumor activity against human BXPC-3 cells xenografted BALB/c mouse model assessed as tumor growth inhibition at 10 mg/kg,po administrated once daily for 8 weeks; format: functional; conditions: BXPC-3, 1344 h, read-out: TGI
# T1 sequence (P40763 whole entry): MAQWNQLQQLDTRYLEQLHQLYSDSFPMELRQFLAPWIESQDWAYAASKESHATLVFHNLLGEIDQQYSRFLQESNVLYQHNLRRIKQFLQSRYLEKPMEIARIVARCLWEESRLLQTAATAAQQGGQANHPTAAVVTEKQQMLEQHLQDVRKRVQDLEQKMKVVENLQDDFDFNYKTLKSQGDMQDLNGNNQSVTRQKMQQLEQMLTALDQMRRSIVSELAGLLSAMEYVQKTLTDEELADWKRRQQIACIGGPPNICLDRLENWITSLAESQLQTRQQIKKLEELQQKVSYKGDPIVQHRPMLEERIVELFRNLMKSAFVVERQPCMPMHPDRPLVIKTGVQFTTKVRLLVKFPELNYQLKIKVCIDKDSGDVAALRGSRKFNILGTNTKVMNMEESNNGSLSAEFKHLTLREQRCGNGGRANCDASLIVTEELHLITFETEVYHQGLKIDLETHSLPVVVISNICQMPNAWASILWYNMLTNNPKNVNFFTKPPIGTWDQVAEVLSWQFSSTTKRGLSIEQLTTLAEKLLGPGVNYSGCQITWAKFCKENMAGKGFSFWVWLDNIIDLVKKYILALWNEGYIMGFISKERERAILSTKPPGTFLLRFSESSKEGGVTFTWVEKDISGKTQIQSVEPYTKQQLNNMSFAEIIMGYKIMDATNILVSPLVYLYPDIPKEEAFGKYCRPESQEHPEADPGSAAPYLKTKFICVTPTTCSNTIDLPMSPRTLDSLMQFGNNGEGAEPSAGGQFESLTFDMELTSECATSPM
# Proto-oncogene tyrosine-protein kinase Src, sequence (P12931 2-536 limits assumed): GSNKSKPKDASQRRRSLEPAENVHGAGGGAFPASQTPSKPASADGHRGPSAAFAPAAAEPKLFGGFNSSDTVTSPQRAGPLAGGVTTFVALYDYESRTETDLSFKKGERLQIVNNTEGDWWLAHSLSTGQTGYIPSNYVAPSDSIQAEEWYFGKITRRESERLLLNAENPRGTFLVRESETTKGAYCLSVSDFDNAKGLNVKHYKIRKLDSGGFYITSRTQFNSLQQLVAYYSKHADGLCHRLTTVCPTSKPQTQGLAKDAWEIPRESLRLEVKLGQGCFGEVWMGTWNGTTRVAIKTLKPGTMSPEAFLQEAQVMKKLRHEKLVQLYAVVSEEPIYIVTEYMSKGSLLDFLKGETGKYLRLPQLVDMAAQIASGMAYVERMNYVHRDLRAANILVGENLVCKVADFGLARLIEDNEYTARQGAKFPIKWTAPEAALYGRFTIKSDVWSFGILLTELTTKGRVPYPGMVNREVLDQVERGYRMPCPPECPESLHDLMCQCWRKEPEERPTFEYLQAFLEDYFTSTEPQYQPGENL
# Tyrosine-protein kinase JAK1, sequence (P23458 whole entry): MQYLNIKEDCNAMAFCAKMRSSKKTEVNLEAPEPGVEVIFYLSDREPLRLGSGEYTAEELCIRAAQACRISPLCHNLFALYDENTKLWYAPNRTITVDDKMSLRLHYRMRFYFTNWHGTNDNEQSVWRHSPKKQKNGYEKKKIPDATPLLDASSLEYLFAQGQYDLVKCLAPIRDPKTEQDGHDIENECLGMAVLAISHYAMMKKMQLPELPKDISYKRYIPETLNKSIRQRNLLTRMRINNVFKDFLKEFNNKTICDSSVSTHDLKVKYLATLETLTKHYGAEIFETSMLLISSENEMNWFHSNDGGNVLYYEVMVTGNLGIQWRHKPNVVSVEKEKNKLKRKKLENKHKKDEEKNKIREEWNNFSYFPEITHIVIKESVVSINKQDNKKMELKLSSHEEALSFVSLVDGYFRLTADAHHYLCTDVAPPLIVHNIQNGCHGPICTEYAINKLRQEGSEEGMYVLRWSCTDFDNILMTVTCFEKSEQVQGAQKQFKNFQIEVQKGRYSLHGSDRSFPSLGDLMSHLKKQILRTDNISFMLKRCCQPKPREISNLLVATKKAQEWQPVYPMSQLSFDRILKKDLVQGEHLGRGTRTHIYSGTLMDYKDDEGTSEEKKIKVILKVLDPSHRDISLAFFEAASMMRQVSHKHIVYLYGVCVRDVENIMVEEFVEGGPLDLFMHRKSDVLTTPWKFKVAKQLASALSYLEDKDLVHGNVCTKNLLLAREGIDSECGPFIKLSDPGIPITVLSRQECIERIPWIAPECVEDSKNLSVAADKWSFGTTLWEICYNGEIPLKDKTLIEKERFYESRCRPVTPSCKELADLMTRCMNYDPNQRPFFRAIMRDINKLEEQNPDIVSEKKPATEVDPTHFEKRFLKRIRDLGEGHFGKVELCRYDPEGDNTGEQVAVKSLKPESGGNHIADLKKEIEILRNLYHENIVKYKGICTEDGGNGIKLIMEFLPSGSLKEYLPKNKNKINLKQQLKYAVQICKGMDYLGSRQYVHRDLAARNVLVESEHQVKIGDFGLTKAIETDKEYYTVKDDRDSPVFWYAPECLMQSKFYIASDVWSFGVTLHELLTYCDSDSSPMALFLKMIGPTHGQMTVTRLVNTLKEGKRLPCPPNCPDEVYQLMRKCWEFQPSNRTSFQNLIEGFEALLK
smiles,measurement,setting,value
COc1ccc(-c2noc(-c3cnc(Oc4ccc5cc(C(=O)N6CCN(Cc7ccc(OCC(F)(F)F)cc7)CC6)n(C)c5c4)cn3)n2)cc1,inhibition,[1],Tde
same,inhibition,CFPAC-1 [2],Dde
same,half-life,[3],1.37 h
same,inhibition,[4],Active
same,inhibition,[5],Tde
same,inhibition,[6],Tde
same,AUC(0-inf),[7],34900 ng·h/mL
same,inhibition,[8],Active
same,MRT last at 24 h,[9],9.8 h
same,Activity,[10],Non-Toxic
same,IC50,[11],> 10000 nM
same,Activity,[12],Non-Toxic
same,IC50,CFPAC-1 [13],6 nM
same,inhibition,[14],Active
same,AUC(0-t) at 24 h,[15],9510 ng·h/mL
same,Activity,[16],Active
same,IC50,PC-3 [17],> 1000 nM
same,inhibition,[18],Dde
same,inhibition,[19],Tde
same,Activity,[20],Non-Toxic
same,Activity,[21],Active
same,inhibition,[22],Dde
same,IC50,[23],> 10000 nM
same,inhibition,BXPC-3 [24],Dde
same,Activity,[25],Non-Toxic
same,AUC(0-inf),[26],11600 ng·h/mL
same,inhibition,CFPAC-1 [27],Dde
same,microsomal CLint,[28],18.3 µL/min/mg
same,Activity,[29],Non-Toxic
same,inhibition,[30],Tde
same,Activity,[31],Non-Toxic
same,inhibition,[32],Active
same,inhibition,Mus musculus,Active
same,inhibition,PC-3 [33],Active
same,inhibition in vivo at 10 mg/kg,BXPC-3 [34],69.2%
